Measurements taken from patent US6794148B2, “High speed, automated, continuous flow, multi-dimensional molecular selection and analysis” (PerSeptive Biosystems, Inc., priority 1995, dated 2004).
No end group written: not given here.

Experiments:
[1] = tested on: IgG; experiment: IgG purification from human serum on POROS-immobilized peptide column; type: binding; conditions: for IgG binding capacity of POROS-peptide column: peptide immobilized on POROS AL via N-terminal end
Protocol: 1 g POROS™ AL (aldehyde) was suspended in 10 mM PBS (pH 7.5) containing 100 mg sodium cyanoborohydride (NaCNBH3). 5 to 20 mg of each of the peptides selected by various screening procedures was added to the resin and the mixture was shaken overnight at room temperature. 100 mg sodium borohydride (NaBH4) was then added and the mixture was shaken for another 2 hrs. The beads were then washed with PBS and packed into 4.6 mm D×100 mm L column using POROS™ Self Pack® device.
100 μl of 1:10 diluted serum was injected onto the peptide column which was equilibrated with 20 mM tris (pH 8.0) at 5 ml/min. The bound proteins were eluted with 0-1 M NaCl gradient in 15 CVs. Fractions were collected manually and concentrated by Speed Vac for subsequent analysis by SDS-polyacrylamide gel electrophoresis.
The […] (SEQ ID NO: 8) peptide with heme group was immobilized on POROS™AL® (aldehyde) via the N-terminal end. This POROS™-peptide conjugate was used to separate IgG from serum at pH 8 under a 0-1 M NaCl gradient. […] To determine the nature of interaction, the purification profile of IgG separated on the POROS™-peptide column was compared with the IgG purified on standard ion exchange columns such as POROS™-CM and POROS™ HQ. […] The effect of the varying loading densities of peptide (from 10 mg/g POROS™ to 100 mg/g POROS™) on specificity and capacity for IgG binding was also investigated. The specificity of the peptide for IgG binding was also investigated. […] At low loading density (10 mg/g POROS™) IgG bound primarily via ionic interaction requiring elution of bound IgG with salt gradient. At higher loading density ([…]) IgG bound strongly and eluted with acid buffer. The binding capacity varied from 1-2 mg/ml column volume at lower ligand density to 30 mg/ml column volume at higher ligand densities.
A simplified analog of the heme peptide ([…]) (SEQ ID NO: 9) was synthesized and immobilized on POROS™ AL via the N-terminal end. […] The bound IgG was eluted from the GAQGHTVBK (SEQ ID NO: 9)-POROS™ column with 100 mM NaCl. The IgG binding capacity was determined to be 5 mg/ml column volume. Loading densities from 20 mg/g to 40 mg peptide /g POROS™ were evaluated. At these ligand densities, the specificity of IgG binding was not affected, but the capacity was reduced.

[2] = molecular target: T1, HSA (Homo sapiens, UniProt P02768); experiment: HSA binding to heme peptide POROS; conditions: only under very hydrophobic conditions (200 mM sodium sulphate, pH 7 buffer)
T1 construct: purchased Sigma Chemical Co (St. Louis, Mo.)

[3] = tested on: IgG; experiment: IgG purification from human serum on POROS-immobilized peptide column; type: binding; conditions: immobilized via carboxyl groups of heme and free C-terminal end
[4] = tested on: mouse IgG (whole fragment); experiment: Solution phase and solid phase peptide screening of natural peptide library; type: binding
Protocol: (§1) 5 mg each of either mouse IgG (whole) or the Fc fragment was incubated with 20 mg of natural library and protein A and G digests, respectively. The mixture was dissolved in 1 ml of a mixture of 25 mM sodium phosphate buffer and 0.15 M NaCl (pH 7) overnight at 4° C. After incubation, several chromatographic runs through the Superdex SEC and RP columns were conducted with 200 of the protein and peptide mixture injected through the Superdex column during each run. The flow rate for the Superdex column was 0.75 m/min with the 25 mM sodium phosphate buffer and 0.15 M NaCl (pH 7) mixture. The early eluting protein peak was collected directly onto the RP column. The remaining portion of the peak was washed off the SEC. The mouse IgG (whole) or Fc fragment and its associated peptides were then eluted from the RP column under the following conditions:
(§2) The IgG activated POROS™ was packed into 4.6 mm D×100 mm L PEEK columns using Self Pack® assembly on BioCAD™ at 20 ml/min flow rate. 5 to 50 mgs peptide library (natural peptide library or polyclonal antibody digest) dissolved in 0.5 to 2.5 ml of 10 mM PBS (pH 7.5) was injected onto the column at flow rate of 0.5 ml/min. After wash with 5 CVs of PBS, the bound portion was eluted with 10 mM HCl and collected manually. […] The fractions corresponding to the bound peptides were concentrated in Speed Vac and analyzed by MALDI-TOF and Edman sequencing. […]

[5] = tested on: IgG; experiment: Solid phase screening of polyclonal antibody digests on immobilized IgG column; type: binding; conditions: tryptic digests of anti-IgG (Fc specific) polyclonal antibodies
Protocol: […] POROS™ EP (epoxy) was suspended in 5 ml 0.1 M phosphate buffer (pH 9) containing 20 mg IgG. After the beads were well suspended, 4 ml 0.1 M phosphate buffer (pH 9) containing 2 M NA2SO4 were added to the mixture and it was shaken overnight at room temperature. The beads were then washed with 10 mM PBS (pH 7.5) and stored in the refrigerator before they were packed into columns.
as §2, with “manually. The fraction was concentrated down to approximately 500 μl and at least 80% of it was injected onto a 4.6 mm D×250 mm L Vydac C18 column at 1 m/min. The RP column was equilibrated with 0.1% TFA/DIW and peptides were eluted with 15 CVs of a 0-40% acetonitrile gradient at flow rate of 1 ml/min.” for “manually.”
Polyclonal antibodies are an interesting and logical source of peptides since they have specific antigen binding sites. […] The amino acid sequence was determined to be […] […]

[6] = tested on: mouse IgG (Fc fragment); experiment: Solution phase peptide screening (SEC - reversed phase) of protein A and G digests; type: binding; conditions: native and denatured recombinant protein A and G digests
Protocol: as §1
Fractions corresponding to bound peptide peaks were lyophilized and redissolved in 1001 of 0.1% TFA/DIW for mass spec analysis by MALDI-TOF.

[7] = tested on: mouse IgG, Fc fragment; experiment: Binding of mouse IgG Fc fragment on POROS 19-mer peptide column; conditions: peptide synthesized directly on POROS NH2 resin via C-terminal end; eluted with acid buffer
Protocol: (§3) The 19-mer peptide ([…]) (SEQ ID NO: 7) selected from protein A and G digests was directly synthesized on 20 μm amine-functionalized™ particles by standard FMOC chemistry. About 700 mg of resin was dry packed into a 4.6 mm D×50 mm L PEEK column equipped with 2 μm frits. The packed column was attached with appropriate adapters to a PerSeptive Biosystems 9050 plus continuous flow peptide synthesizer. Upon completion of synthesis, the resin was dried and deprotected using 95% TFA/5% triisopropylsilane for 24 hrs. The final peptide-support conjugate was packed using POROS™ Self Pack® column packing device at flow rate 10 ml/min onto 4.6 mm D×50 mm L column for evaluation as affinity supports.
(§4) The 19-mer peptide column (4.6 mm D×50 mm L) was equilibrated with 20 CVs of equilibration buffer, 20 mM tris (pH 7). About 500 μl of 1 mg/ml of each of the following samples was injected onto the 19-mer peptide column (4.6 mm D×50 mm L): 1) pure IgGs from either human or mouse or chicken, 2) IgA (whole molecule), 3) human serum, 4) fetal bovine serum (1:10 dilution), or 5) 500 μl of 1 mg/ml mouse […]. After injection, the column was washed with 20 CVs of a mixture of 20 mM tris buffer and 0.4 M NaCl (pH 7). The remaining bound proteins were eluted with 20 CVs of 12 mM HCl. […] The bound fractions were collected and analyzed by SDS-Polyacrylamide gel electrophoresis.

[8] = tested on: IgG; experiment: Immunoglobulin class and species selectivity of POROS 19-mer peptide column; type: binding
Protocol: as §3, §4

Row | Sequence | selectivity for IgG from serum versus ion exchange columns ([1]; compared with POROS-CM and POROS HQ, similar conditions) | IgG binding capacity at higher ligand densities ([1]; higher loading density (100 mg/mg)) [mg/ml column volume] | IgG binding capacity at lower ligand density ([1]; low loading density (10 mg/g POROS)) | purity of IgG purified from serum ([1]; pH 8, 0-1 M NaCl gradient, versus POROS-Protein A) | IgG binding capacity of POROS-peptide column ([1]; pH 8) [mg/ml column volume] | binding to HSA [2] | IgG binding when immobilized via carboxyl groups [3] | selected as binder in library screening [4] | specificity of IgG binding from human serum ([1]; pH 8, immobilized on POROS via N-terminal end) | selectivity of peptide isolated from denatured antibody digest [5] | selected as binder in solution phase screening [6] | binding of mouse IgG Fc fragment (capacity and selectivity) [7] | selectivity IgG versus IgA ([8]; POROS 19-mer peptide column) | species selectivity of IgG binding ([8]; human versus rabbit, goat or mouse IgG)
1 | CAQCHTVEK (cysteine pairing not given here; also: heme group) [tryptic digest peptide of cytochrome c with heme group, immobilized on POROS AL] | higher selectivity for IgG from serum than either of the ion exchange columns | 30 | 1-2 mg/ml column volume | comparable purity to that of IgG separated on POROS™-Protein A column | 10 | bound very weakly | no IgG binding | yielded one peptide |  |  |  |  |  | 
2 | GAQGHTVEK (OTHER INFORMATION: Description of Artificial Sequence: synthetic peptide) [simplified analog of the heme peptide; also isolated from polyclonal antibody digests] |  |  |  |  | 5 |  |  |  | bound specifically | selective for IgG |  |  |  | 
3 | TVTEKPEVIDASELTPAVT (also: synthesized on POROS) [19-mer peptide selected from protein A and G digests, synthesized on POROS] |  |  |  |  |  |  |  |  |  |  | identified | low capacity but high selectivity | more selective for IgG than IgA | Human IgG bound more selectively
